ChEMBL document CHEMBL1138746, “Indolebutylamines as selective 5-HT(1A) agonists” (J Med Chem, 2004)

Legend:
[1] = target: T1, Adrenergic receptor alpha-1 (Homo sapiens, UniProt P35348+P25100+P35368); assay: Inhibition of Alpha-1 adrenergic receptor; type: protein assay
T1 sequence (P35348 whole entry): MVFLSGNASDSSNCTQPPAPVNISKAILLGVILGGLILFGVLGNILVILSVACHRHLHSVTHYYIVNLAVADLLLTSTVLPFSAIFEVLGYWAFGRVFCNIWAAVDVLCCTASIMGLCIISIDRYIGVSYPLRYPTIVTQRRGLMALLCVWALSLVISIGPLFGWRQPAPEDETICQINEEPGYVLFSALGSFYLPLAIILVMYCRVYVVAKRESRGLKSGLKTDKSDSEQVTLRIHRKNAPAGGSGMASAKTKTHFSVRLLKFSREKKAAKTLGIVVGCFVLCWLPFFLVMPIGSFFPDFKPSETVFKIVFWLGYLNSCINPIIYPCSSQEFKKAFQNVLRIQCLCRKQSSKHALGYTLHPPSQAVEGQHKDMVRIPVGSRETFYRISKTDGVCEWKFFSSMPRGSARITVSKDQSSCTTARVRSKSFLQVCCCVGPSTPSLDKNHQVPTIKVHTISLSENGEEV
T1 sequence (P25100 whole entry): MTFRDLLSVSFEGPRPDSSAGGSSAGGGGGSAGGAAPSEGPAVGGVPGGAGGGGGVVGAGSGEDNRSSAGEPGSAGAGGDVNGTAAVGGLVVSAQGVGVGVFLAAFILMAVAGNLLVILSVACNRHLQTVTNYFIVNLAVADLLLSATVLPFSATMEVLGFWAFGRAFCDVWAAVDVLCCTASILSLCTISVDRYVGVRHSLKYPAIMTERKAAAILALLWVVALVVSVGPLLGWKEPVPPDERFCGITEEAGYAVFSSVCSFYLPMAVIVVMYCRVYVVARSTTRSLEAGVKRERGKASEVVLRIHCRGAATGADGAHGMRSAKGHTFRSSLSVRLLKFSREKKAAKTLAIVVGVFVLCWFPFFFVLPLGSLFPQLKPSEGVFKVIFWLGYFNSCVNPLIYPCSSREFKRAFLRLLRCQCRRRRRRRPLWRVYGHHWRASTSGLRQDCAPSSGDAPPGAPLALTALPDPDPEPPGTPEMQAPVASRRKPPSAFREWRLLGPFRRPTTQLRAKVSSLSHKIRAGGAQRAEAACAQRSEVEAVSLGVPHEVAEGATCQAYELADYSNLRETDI
T1 sequence (P35368 whole entry): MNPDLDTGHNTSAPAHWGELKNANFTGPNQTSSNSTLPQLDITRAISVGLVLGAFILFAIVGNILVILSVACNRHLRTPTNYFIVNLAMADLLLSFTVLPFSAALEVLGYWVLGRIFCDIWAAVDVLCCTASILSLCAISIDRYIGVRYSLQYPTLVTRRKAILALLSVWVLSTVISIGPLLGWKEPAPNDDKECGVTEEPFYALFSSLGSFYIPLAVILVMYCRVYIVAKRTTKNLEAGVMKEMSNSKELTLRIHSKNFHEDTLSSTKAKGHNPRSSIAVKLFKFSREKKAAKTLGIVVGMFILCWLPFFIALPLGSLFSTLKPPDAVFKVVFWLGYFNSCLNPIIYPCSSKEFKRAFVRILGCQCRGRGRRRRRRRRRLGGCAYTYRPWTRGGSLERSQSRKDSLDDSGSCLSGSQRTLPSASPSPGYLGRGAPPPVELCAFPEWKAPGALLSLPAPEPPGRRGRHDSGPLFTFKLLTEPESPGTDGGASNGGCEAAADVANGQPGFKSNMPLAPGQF

[2] = Inhibition of Histamine H1 receptor
[3] = target: T2, 5-hydroxytryptamine receptor 1A (Rattus norvegicus, UniProt P19327); assay: Inhibition of 8-OH DPAT bindign to rat hydroxytryptamine 1A receptor in hippocampal membranes
T2 sequence (P19327 whole entry): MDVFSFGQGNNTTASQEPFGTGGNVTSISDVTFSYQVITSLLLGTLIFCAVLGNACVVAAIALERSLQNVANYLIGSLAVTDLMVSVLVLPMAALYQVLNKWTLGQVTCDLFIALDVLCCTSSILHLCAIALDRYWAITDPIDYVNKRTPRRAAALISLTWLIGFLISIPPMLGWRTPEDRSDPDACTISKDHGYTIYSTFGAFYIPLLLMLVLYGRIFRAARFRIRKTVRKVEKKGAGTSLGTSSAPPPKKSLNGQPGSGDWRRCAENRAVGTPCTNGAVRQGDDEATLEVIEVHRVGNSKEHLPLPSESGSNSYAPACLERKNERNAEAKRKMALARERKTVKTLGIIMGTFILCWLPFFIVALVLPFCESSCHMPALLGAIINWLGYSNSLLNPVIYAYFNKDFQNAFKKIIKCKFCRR

[4] = Inhibition of hydroxytryptamine 2C receptor
D(3) dopamine receptor = D(3) dopamine receptor (Homo sapiens, UniProt P35462); assay: Inhibition of dopamine D3 receptor
[5] = Inhibition of hydroxytryptamine 2A receptor
D(4) dopamine receptor = target: T3, D(4) dopamine receptor (Homo sapiens, UniProt P21917); assay: Inhibition of dopamine D4 receptor
T3 sequence (P21917 whole entry): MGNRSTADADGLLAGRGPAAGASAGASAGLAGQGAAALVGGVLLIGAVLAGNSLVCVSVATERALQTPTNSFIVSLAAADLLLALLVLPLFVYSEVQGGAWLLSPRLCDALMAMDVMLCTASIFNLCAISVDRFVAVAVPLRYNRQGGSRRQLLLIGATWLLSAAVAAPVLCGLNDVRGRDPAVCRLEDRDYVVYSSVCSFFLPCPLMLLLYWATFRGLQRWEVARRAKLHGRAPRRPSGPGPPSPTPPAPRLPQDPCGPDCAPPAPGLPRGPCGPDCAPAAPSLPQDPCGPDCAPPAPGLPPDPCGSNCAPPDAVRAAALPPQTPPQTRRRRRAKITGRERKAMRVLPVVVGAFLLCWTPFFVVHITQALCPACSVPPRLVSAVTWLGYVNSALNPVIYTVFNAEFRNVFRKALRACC

D(3) dopamine receptor, sequence (P35462 whole entry): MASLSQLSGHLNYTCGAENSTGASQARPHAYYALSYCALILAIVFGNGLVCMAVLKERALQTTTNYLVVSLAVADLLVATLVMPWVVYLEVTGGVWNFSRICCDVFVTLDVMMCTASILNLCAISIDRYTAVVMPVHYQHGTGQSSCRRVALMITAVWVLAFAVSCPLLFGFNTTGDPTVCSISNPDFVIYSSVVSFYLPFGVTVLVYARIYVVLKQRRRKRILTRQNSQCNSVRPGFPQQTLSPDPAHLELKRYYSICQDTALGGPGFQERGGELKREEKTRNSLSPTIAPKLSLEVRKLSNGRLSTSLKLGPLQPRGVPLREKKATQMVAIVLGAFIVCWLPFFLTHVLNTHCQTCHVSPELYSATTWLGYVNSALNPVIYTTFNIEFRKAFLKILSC

## O=C1c2ccccc2S(=O)(=O)N1CCCCN1CCN(c2ncccn2)CC1 [IPSAPIRONE]
[1]
  IC50: 500 nM
[2]
  IC50: 24 nM
[3]
  IC50: 8.2 nM
[4]
  IC50: > 1000 nM
D(3) dopamine receptor
  IC50: 1200 nM
[5]
  IC50: 2600 nM
D(4) dopamine receptor
  IC50: 1800 nM
